Values of other authors in PubChem BioAssay AID1259409 (Chemical Carcinogenesis Research Information System (CCRIS), 2018).

System: rodent chemically induced tumor inhibition, incidence and multiplicity
Assay: CCRIS tumor inhibitor studies

COCC(=O)[C@@]1(OC(C)=O)CC[C@H]2[C@@H]3CCC4=CC(=O)CCC4=C3[C@@H](c3ccc(N(C)C)cc3)C[C@@]21C
tumour outcome (control, treated, inhibition, significance) (Carcinogen: 7,12-Dimethylbenz(a)anthracene (57-97-6), Dose [Inhibitor]: 1 mg administered daily for 28 days, Route [Inhibitor]: Subcutaneous, Species: Rat, Strain/Sex: Sprague-Dawley/Female, Target Tissue: Type of Lesion: Mammary gland: Adenocarcinoma and papilliary carcinoma, Dose [Carcinogen]: 10 mg/kg once at 50 days of age, Promoter: None): 12/13 (92%), 9/11 (82%), 11%, ns
tumour outcome (control, treated, inhibition, significance) (Carcinogen: 7,12-Dimethylbenz(a)anthracene (57-97-6), Dose [Inhibitor]: 2 mg administered daily for 28 days, Route [Inhibitor]: Subcutaneous, Species: Rat, Strain/Sex: Sprague-Dawley/Female, Target Tissue: Type of Lesion: Mammary gland: Adenocarcinoma and papillary carcinoma, Dose [Carcinogen]: 10 mg/kg once at 50 days of age, Promoter: None): 12/13 (92%), 11/12 (92%), 0%, ns
tumour outcome (control, treated, inhibition, significance) (Carcinogen: 7,12-Dimethylbenz(a)anthracene (57-97-6), Dose [Inhibitor]: 2 mg administered daily for 28 days, Route [Inhibitor]: Subcutaneous, Species: Rat, Strain/Sex: Sprague-Dawley/Female, Target Tissue: Type of Lesion: Mammary gland: Adenocarcinoma and papillary carcinoma, Dose [Carcinogen]: 10 mg/kg once at 50 days of age, Promoter: Progesterone (57-83-0)): 12/13 (92%), 10/11 (91%), 0%, ns
tumour outcome (control, treated, inhibition, significance) (Carcinogen: 7,12-Dimethylbenz(a)anthracene (57-97-6), Dose [Inhibitor]: 10 mg administered daily for 28 days, Route [Inhibitor]: Subcutaneous, Species: Rat, Strain/Sex: Sprague-Dawley/Female, Target Tissue: Type of Lesion: Mammary gland: Adenocarcinoma and papillary carcinoma, Dose [Carcinogen]: 10 mg/kg once at 50 days of age, Promoter: None): 12/13 (92%), 10/11 (91%), 0%, ns
tumour outcome (control, treated, inhibition, significance) (Carcinogen: 7,12-Dimethylbenz(a)anthracene (57-97-6), Dose [Inhibitor]: 10 mg administered daily for 28 days, Route [Inhibitor]: Subcutaneous, Species: Rat, Strain/Sex: Sprague-Dawley/Female, Target Tissue: Type of Lesion: Mammary gland: Adenocarcinoma and papillary carcinoma, Dose [Carcinogen]: 10 mg/kg once at 50 days of age, Promoter: Progesterone (57-83-0)): 12/13 (92%), 10/12 (83%), 10%, ns

O=C1O[C@@H]2[C@@H](O)CO[C@]2(O)[C@@]1(O)Cc1c[nH]c2ccccc12
tumour outcome (control, treated, inhibition, significance) (Carcinogen: 7,12-DIMETHYLBENZ[A]ANTHRACENE [57-97-6], Dose [Inhibitor]: 0, 16 MG IN 0.5 ML DMSO 1X/D FOR 3 D BEGINNING 2 D PRIOR TO CARCINOGEN DOSE (STUDY DURATION: 93 D), Route [Inhibitor]: GAVAGE, Species: RAT, Strain/Sex: SPRAGUE-DAWLEY/FEMALE, Target Tissue: Type of Lesion: MAMMARY GLAND: TUMOR, Dose [Carcinogen]: 15 MG IN 0.5 ML DMSO TOGETHER WITH THE LAST DOES OF INHIBITOR (STUDY DURATION: 93 D), Promoter: NONE): 63%, 60%, 5%, not significant
tumour outcome (control, treated, inhibition, significance) (Carcinogen: 7,12-DIMETHYLBENZ[A]ANTHRACENE [57-97-6], Dose [Inhibitor]: 0, 32.5 MG IN 0.5 ML DMSO 1X/D FOR 3 D BEGINNING 2 D PRIOR TO CARCINOGEN DOSE (STUDY DURATION: 93 D), Route [Inhibitor]: GAVAGE, Species: RAT, Strain/Sex: SPRAGUE-DAWLEY/FEMALE, Target Tissue: Type of Lesion: MAMMARY GLAND: TUMOR, Dose [Carcinogen]: 15 MG IN 0.5 ML DMSO TOGETHER WITH THE LAST DOES OF INHIBITOR (STUDY DURATION: 93 D), Promoter: NONE): 63%, 33%, 48%, p<0.05
tumour outcome (control, treated, inhibition, significance) (Carcinogen: 7,12-DIMETHYLBENZ[A]ANTHRACENE [57-97-6], Dose [Inhibitor]: 0, 65 MG IN 0.5 ML DMSO 1X/D FOR 3 D BEGINNING 2 D PRIOR TO CARCINOGEN DOSE (STUDY DURATION: 93 D), Route [Inhibitor]: GAVAGE, Species: RAT, Strain/Sex: SPRAGUE-DAWLEY/FEMALE, Target Tissue: Type of Lesion: MAMMARY GLAND: TUMOR, Dose [Carcinogen]: 15 MG IN 0.5 ML DMSO TOGETHER WITH THE LAST DOES OF INHIBITOR (STUDY DURATION: 93 D), Promoter: NONE): 63%, 39%, 38%, p<0.05

Clc1ccc(COC(Cn2ccnc2)c2ccc(Cl)cc2Cl)c(Cl)c1 (stereo unspecified)
tumour outcome (control, treated, inhibition, significance) (Carcinogen: 7,12-DIMETHYLBENZ[A]ANTHRACENE, 57-97-6, Dose [Inhibitor]: 0, 1000 PPM IN DIET FOR DURATION OF STUDY BEGINNING 1 WK PRIOR TO CARCINOGEN DOSE (STUDY DURATION: 107 D), Route [Inhibitor]: ORAL, Species: RAT, Strain/Sex: SPRAGUE-DAWLEY/FEMALE, Target Tissue: Type of Lesion: MAMMARY GLAND: ADENOCARCINOMA, Dose [Carcinogen]: 12 MG ONCE, Promoter: NONE USED): 96%, 84%, 13%, not significant
tumour outcome (control, treated, inhibition, significance) (Carcinogen: 7,12-DIMETHYLBENZ[A]ANTHRACENE, 57-97-6, Dose [Inhibitor]: 0, 2000 PPM IN DIET FOR DURATION OF STUDY BEGINNING 1 WK PRIOR TO CARCINOGEN DOSE (STUDY DURATION: 107 D), Route [Inhibitor]: ORAL, Species: RAT, Strain/Sex: SPRAGUE-DAWLEY/FEMALE, Target Tissue: Type of Lesion: MAMMARY GLAND: ADENOCARCINOMA, Dose [Carcinogen]: 12 MG ONCE, Promoter: NONE USED): 96%, 68%, 29%, not calculated

CS(=O)CCCCN=C=S (stereo unspecified)
tumour outcome (control, treated, inhibition, significance) (Carcinogen: 4-(METHYLNITROSAMINO)-1-(3-PYRIDYL)-1-BUTANONE (NNK) [64091-91-4], Dose [Inhibitor]: 1.5 UM/G DIET, BEGINNING 13 WKS AFTER CARCINOGEN/PROMOTER TREATMENT (STUDY DURATION: 42 WK), Route [Inhibitor]: DIET, Species: MOUSE, Strain/Sex: A/J/FEMALE (39,?)/(20,?), Target Tissue: Type of Lesion: LUNG: ADENOCARCINOMA, Dose [Carcinogen]: 3 µM WEEKLY FOR 8 DOSES, Promoter: BENZO[A]PYRENE [50-32-8]): 42%, 20%, 52%, not significant
tumour outcome (control, treated, inhibition, significance) (Carcinogen: 4-(METHYLNITROSAMINO)-1-(3-PYRIDYL)-1-BUTANONE (NNK) [64091-91-4], Dose [Inhibitor]: 1.5 UM/G DIET, BEGINNING 13 WKS AFTER CARCINOGEN/PROMOTER TREATMENT (STUDY DURATION: 42 WK), Route [Inhibitor]: DIET, Species: MOUSE, Strain/Sex: A/J/FEMALE (39,?)/(20,?), Target Tissue: Type of Lesion: LUNG: ADENOMA, Dose [Carcinogen]: 3 µM WEEKLY FOR 8 DOSES, Promoter: BENZO[A]PYRENE [50-32-8]): 100%, 100%, 0%, not significant
tumour outcome (control, treated, inhibition, significance) (Carcinogen: 4-(METHYLNITROSAMINO)-1-(3-PYRIDYL)-1-BUTANONE (NNK) [64091-91-4], Dose [Inhibitor]: 3 UM/G DIET, BEGINNING 13 WKS AFTER CARCINOGEN/PROMOTER TREATMENT (STUDY DURATION: 42 WK), Route [Inhibitor]: DIET, Species: MOUSE, Strain/Sex: A/J/FEMALE (39,?)(32,?), Target Tissue: Type of Lesion: LUNG: ADENOCARCINOMA, Dose [Carcinogen]: 3 µM WEEKLY FOR 8 DOSES, Promoter: BENZO[A]PYRENE [50-32-8]): 42%, 28%, 33%, not significant
tumour outcome (control, treated, inhibition, significance) (Carcinogen: 4-(METHYLNITROSAMINO)-1-(3-PYRIDYL)-1-BUTANONE (NNK) [64091-91-4], Dose [Inhibitor]: 3 UM/G DIET, BEGINNING 13 WKS AFTER CARCINOGEN/PROMOTER TREATMENT (STUDY DURATION: 42 WK), Route [Inhibitor]: DIET, Species: MOUSE, Strain/Sex: A/J/FEMALE (39,?)/(32,?), Target Tissue: Type of Lesion: LUNG: ADENOMA, Dose [Carcinogen]: 3 µM WEEKLY FOR 8 DOSES, Promoter: BENZO[A]PYRENE [50-32-8]): 100%, 93%, 7%, not significant
tumour outcome (control, treated, inhibition, significance) (Carcinogen: 7,12-DIMETHYLBENZ[A]ANTHRACENE, 57-97-6, Dose [Inhibitor]: 0, 75 UMOL/D IN 0.5 ML EMULPHOR EL-620 FOR 5 CONSECUTIVE DAYS BEGINNING AT 47 D OF AGE (STUDY DURATION: 155 D), Route [Inhibitor]: GAVAGE, Species: RAT, Strain/Sex: SPRAGUE-DAWLEY/FEMALE, Target Tissue: Type of Lesion: MAMMARY GLAND: TUMOR, Dose [Carcinogen]: 8 MG IN 1 ML SESAME OIL ONCE AT 50 D OF AGE, Promoter: NONE USED): 17/25 (68%), 7/20 (35%), 49%, p<0.05
tumour outcome (control, treated, inhibition, significance) (Carcinogen: 7,12-DIMETHYLBENZ[A]ANTHRACENE, 57-97-6, Dose [Inhibitor]: 0, 150 UMOL/D IN 0.5 ML EMULPHOR EL-620 FOR 5 CONSECUTIVE DAYS BEGINNING AT 47 D OF AGE (STUDY DURATION: 155 D), Route [Inhibitor]: GAVAGE, Species: RAT, Strain/Sex: SPRAGUE-DAWLEY/FEMALE, Target Tissue: Type of Lesion: MAMMARY GLAND: TUMOR, Dose [Carcinogen]: 8 MG IN 1 ML SESAME OIL ONCE AT 50 D OF AGE, Promoter: NONE USED): 17/25 (68%), 5/19 (26%), 62%, p<0.05
